Assay results published in BigSolDB 2.1.

CS(=O)(=O)c1ccc([C@@H](O)[C@@H](CO)NC(=O)C(Cl)Cl)cc1
solubility (mole fraction)
Settings	278.15 K	283.15 K	288.15 K	293.15 K	298.15 K	303.15 K	308.15 K	313.15 K	318.15 K
in 1,4-dioxane	–	–	0.000384	0.000508	0.000728	0.000973	0.0013	0.00173	0.00227
in 2-butanone	0.000139	0.000197	0.000286	0.000379	0.00051	0.000704	0.000952	0.00125	0.00166
in DMF	0.0092	0.012	0.0156	0.0199	0.025	0.0308	0.0379	0.0457	0.0553
in acetone	0.000283	0.000425	0.000585	0.00084	0.00112	0.00149	0.00202	0.00268	0.00352
in acetonitrile	7.96e-05	0.000119	0.000177	0.000259	0.000363	0.000502	0.000716	0.00098	0.00134
in ethanol	0.000102	0.000148	0.000219	0.000309	–	0.000625	0.000837	0.00115	0.00157
in ethyl acetate	6.24e-05	9.09e-05	0.000124	0.000171	0.000246	0.000348	0.000471	0.000643	0.000861
in isopropanol	3.46e-05	5.2e-05	7.13e-05	0.000104	0.000146	0.000201	0.000269	0.000364	0.000493
in methanol	0.00023	0.000345	0.000518	0.000715	0.000993	0.00141	0.00189	0.00259	0.00341
in n-butanol	9.54e-06	1.38e-05	2.08e-05	3.1e-05	4.46e-05	6.39e-05	8.42e-05	0.000123	0.000165
in n-propanol	5.11e-05	7.34e-05	0.000103	0.000147	0.000199	0.000285	0.00038	0.000509	0.000687
in toluene	3.96e-06	6.03e-06	8.89e-06	1.28e-05	1.89e-05	2.7e-05	3.81e-05	5.53e-05	7.6e-05
in water	2.5e-05	3.42e-05	4.96e-05	7.3e-05	9.52e-05	0.000132	0.000187	0.000253	0.000339
